Results taken from paper PMC12028158, “Synthesis and In Vitro Evaluation of the Anticancer Effect of Novel Phosphonium Vindoline Derivatives” (International Journal of Molecular Sciences, 2025).
Like-named read-outs stand apart in the source and are kept apart here.

Columns and labels:
Assay type in all cases: cell-based
UACC-62 [1] = experiment: NCI60 one-dose screen; details: Homo sapiens
SK-MEL-2 = experiment: NCI60 five-dose screen; details: Homo sapiens
HCT-116 [2] = experiment: NCI60 five-dose screen; details: Homo sapiens
U251 = experiment: NCI60 one-dose screen; details: Homo sapiens
SK-OV-3 = experiment: NCI60 five-dose screen; details: Homo sapiens
A549/ATCC = experiment: NCI60 one-dose screen; details: Homo sapiens
[3] = test system: 60 human tumor cell lines (NCI60); experiment: NCI60 five-dose screen, overall mean; details: read-out: GI50 Mean, mean over all 60 human cancer cell lines
NCI-H460 = experiment: NCI60 five-dose screen; details: Homo sapiens
NCI-H226 [4] = experiment: NCI60 one-dose screen; details: Homo sapiens
NCI-H322M = experiment: NCI60 one-dose screen; details: Homo sapiens, read-out: Growth percent
MDA-MB231ATCC = experiment: NCI60 five-dose screen; details: Homo sapiens, MDA-MB-231
DU-145 = experiment: NCI60 five-dose screen; details: Homo sapiens
HCT-116 [5] = experiment: NCI60 one-dose screen; details: Homo sapiens
CAKI-1 = experiment: NCI60 five-dose screen; details: Homo sapiens
UO-31 [6] = experiment: NCI60 five-dose screen; details: Homo sapiens
NCI/ADR-RES = experiment: NCI60 one-dose screen; details: Homo sapiens, read-out: Growth percent
MCF7 [7] = experiment: NCI60 five-dose screen; details: Homo sapiens
HL-60(TB) = experiment: NCI60 one-dose screen; details: Homo sapiens
Prostate Cancer panel = experiment: NCI60 five-dose screen, panel mean; details: Homo sapiens
SK-MEL-28 = experiment: NCI60 five-dose screen; details: Homo sapiens
OVCAR-5 = experiment: NCI60 one-dose screen; details: Homo sapiens, OVCAR-5, read-out: Growth percent
SK-MEL-5 = experiment: NCI60 five-dose screen; details: Homo sapiens
RXF 393 = experiment: NCI60 five-dose screen; details: Homo sapiens, RXF 393
HS 578T = experiment: NCI60 five-dose screen; details: Homo sapiens
NCI-H226 [8] = experiment: NCI60 five-dose screen; details: Homo sapiens
UACC-62 [9] = experiment: NCI60 five-dose screen; details: Homo sapiens
HCT-15 = experiment: NCI60 five-dose screen; details: Homo sapiens
SNB-75 = experiment: NCI60 five-dose screen; details: Homo sapiens
UACC-257 = experiment: NCI60 five-dose screen; details: Homo sapiens
HOP-62 = experiment: NCI60 one-dose screen; details: Homo sapiens
MCF7 [10] = experiment: NCI60 one-dose screen; details: Homo sapiens
UO-31 [11] = experiment: NCI60 one-dose screen; details: Homo sapiens, UO-31, read-out: Growth percent
SN12C = experiment: NCI60 one-dose screen; details: Homo sapiens, read-out: Growth percent
Leukemia panel = experiment: NCI60 five-dose screen, panel mean; details: Homo sapiens
NCI-H23 = experiment: NCI60 five-dose screen; details: Homo sapiens
K-562 = experiment: NCI60 one-dose screen; details: Homo sapiens
Ovarian Cancer panel = experiment: NCI60 five-dose screen, panel mean; details: Homo sapiens
M14 = experiment: NCI60 one-dose screen; details: Homo sapiens
SR = experiment: NCI60 five-dose screen; details: Homo sapiens
[12] = UACC-62, read-out: Growth percent
[13] = U-251, read-out: Growth percent
[14] = NCI-H226, read-out: Growth percent
[15] = HCT-116, read-out: Growth percent
[16] = HL-60, read-out: Growth percent
[17] = HOP-62, read-out: Growth percent

## CC[C@]12C=CCN3CC[C@@]4(c5ccc(OC)cc5N(C)[C@H]4[C@@](O)(C(=O)OC)[C@@H]1OC(=O)CCCC[P+](c1ccccc1)(c1ccccc1)c1ccccc1)[C@@H]32 [compound 4, reference compound]
UACC-62 [1]; [12]
  activity at 10 µM: -6.54%
SK-MEL-2; SK-MEL-2
  GI50: 279 nM
HCT-116 [2]; HCT-116
  GI50: 1060 nM
U251; [13]
  activity at 10 µM: 10.9%
SK-OV-3; SK-OV-3
  GI50: 725 nM
A549/ATCC; A549, read-out: Growth percent
  activity at 10 µM: 22.1%
[3]
  GI50: 3520 nM
NCI-H460; NCI-H460
  GI50: 2110 nM
NCI-H226 [4]; [14]
  activity at 10 µM: 15.1%
NCI-H322M
  activity at 10 µM: 47%
MDA-MB231ATCC
  GI50: 370 nM
DU-145; DU-145
  GI50: 763 nM
HCT-116 [5]; [15]
  activity at 10 µM: 8.03%
CAKI-1; CAKI-1
  GI50: 2820 nM
UO-31 [6]; UO-31
  GI50: 12200 nM
NCI/ADR-RES
  activity at 10 µM: 91.6%
MCF7 [7]; MCF7
  GI50: 322 nM
HL-60(TB); [16]
  activity at 10 µM: -63.5%
Prostate Cancer panel; read-out: GI50 Mean
  GI50: 570 nM
SK-MEL-28; SK-MEL-28
  GI50: 532 nM
OVCAR-5
  activity at 10 µM: 23.8%
SK-MEL-5; SK-MEL-5
  GI50: 1710 nM
RXF 393
  GI50: 308 nM
HS 578T; Hs-578T
  GI50: 1230 nM
NCI-H226 [8]; NCI-H226
  GI50: 1930 nM
UACC-62 [9]; UACC-62
  GI50: 403 nM
HCT-15; HCT-15
  GI50: 18600 nM
SNB-75; SNB-75
  GI50: 221 nM
UACC-257; UACC-257
  GI50: 215 nM
HOP-62; [17]
  activity at 10 µM: 26.4%
MCF7 [10]; MCF7, read-out: Growth percent
  activity at 10 µM: 4.69%
UO-31 [11]
  activity at 10 µM: 81.9%
SN12C
  activity at 10 µM: 4.56%
Leukemia panel; read-out: GI50 Mean
  GI50: 600 nM
NCI-H23; NCI-H23
  GI50: 1220 nM
K-562; K562, read-out: Growth percent
  activity at 10 µM: 21.7%
Ovarian Cancer panel; read-out: GI50 Mean
  GI50: 15100 nM
M14; M14, read-out: Growth percent
  activity at 10 µM: 29.4%

## CC[C@]12C=CCN3CC[C@@]4(c5ccc(OC)cc5N(C)[C@H]4[C@@](O)(C(=O)OC)[C@@H]1OC(=O)CCC[P+](c1ccccc1)(c1ccccc1)c1ccccc1OC)[C@@H]32 [9f]
UACC-62 [1]; [12]
  activity at 10 µM: -73.2%
SK-MEL-2; SK-MEL-2
  GI50: 322 nM
HCT-116 [2]; HCT-116
  GI50: 383 nM
U251; [13]
  activity at 10 µM: -96.9%
SK-OV-3; SK-OV-3
  GI50: 411 nM
A549/ATCC; A549, read-out: Growth percent
  activity at 10 µM: 20.1%
NCI-H460; NCI-H460
  GI50: 774 nM
NCI-H226 [4]; [14]
  activity at 10 µM: -38.6%
SR
  GI50: 221 nM
NCI-H322M
  activity at 10 µM: 25.9%
MDA-MB231ATCC
  GI50: 397 nM
DU-145; DU-145
  GI50: 418 nM
HCT-116 [5]; [15]
  activity at 10 µM: -51%
CAKI-1; CAKI-1
  GI50: 1900 nM
UO-31 [6]; UO-31
  GI50: 11000 nM
NCI/ADR-RES
  activity at 10 µM: 75.9%
MCF7 [7]; MCF7
  GI50: 288 nM
HL-60(TB); [16]
  activity at 10 µM: -5.95%
Prostate Cancer panel; read-out: Mean GI50
  GI50: 340 nM
SK-MEL-28; SK-MEL-28
  GI50: 506 nM
OVCAR-5
  activity at 10 µM: 10.6%
SK-MEL-5; SK-MEL-5
  GI50: 777 nM
RXF 393
  GI50: 247 nM
HS 578T; Hs-578T
  GI50: 473 nM
NCI-H226 [8]; NCI-H226
  GI50: 1210 nM
UACC-62 [9]; UACC-62
  GI50: 286 nM
HCT-15; HCT-15
  GI50: 9070 nM
SNB-75; SNB-75
  GI50: 197 nM
UACC-257; UACC-257
  GI50: 406 nM
HOP-62; [17]
  activity at 10 µM: -13.7%
MCF7 [10]; MCF7, read-out: Growth percent
  activity at 10 µM: -68.1%
UO-31 [11]
  activity at 10 µM: 44%
SN12C
  activity at 10 µM: -80.6%
Leukemia panel; read-out: Mean GI50
  GI50: 220 nM
NCI-H23; NCI-H23
  GI50: 413 nM
K-562; K562, read-out: Growth percent
  activity at 10 µM: -43.4%
Ovarian Cancer panel; read-out: Mean GI50
  GI50: 4200 nM
M14; M14, read-out: Growth percent
  activity at 10 µM: -82.9%

## CC[C@]12C=CCN3CC[C@@]4(c5ccc(OC)cc5N(C)[C@H]4[C@@](O)(C(=O)OC)[C@@H]1OC(=O)CCC[P+](c1cc(C)c(OC)c(C)c1)(c1cc(C)c(OC)c(C)c1)c1cc(C)c(OC)c(C)c1)[C@@H]32 [9e]
UACC-62 [1]; UACC-62, 10 μM, one-dose, read-out: Growth percent
  activity at 10 µM: -97.7%
SK-MEL-2; SK-MEL-2, SK-MEL-2, Melanoma, five-dose, read-out: GI50
  GI50: 60 nM
SK-MEL-2; SK-MEL-2, melanoma SK-MEL-2, text, read-out: GI50
  GI50: < 100 nM
HCT-116 [2]; HCT-116, Colon Cancer, five-dose, read-out: GI50
  GI50: 223 nM
U251; U-251, U251, 10 μM, one-dose, read-out: Growth percent
  activity at 10 µM: -96.5%
SK-OV-3; SK-OV-3, Ovarian Cancer, five-dose, read-out: GI50
  GI50: 232 nM
A549/ATCC; A549/ATCC, 10 μM, one-dose, read-out: Growth percent
  activity at 10 µM: -92.9%
NCI-H460; NCI-H460, Non-small Cell Lung Cancer, five-dose, read-out: GI50
  GI50: 229 nM
NCI-H226 [4]; NCI-H226, 10 μM, one-dose, read-out: Growth percent
  activity at 10 µM: -99.3%
SR; Leukemia, five-dose, read-out: GI50
  GI50: 144 nM
NCI-H322M; 10 μM, one-dose
  activity at 10 µM: -98.1%
MDA-MB231ATCC; MDA-MB231ATCC, Breast Cancer, five-dose, read-out: GI50
  GI50: 293 nM
DU-145; DU-145, Prostate Cancer, five-dose, read-out: GI50
  GI50: 300 nM
HCT-116 [5]; HCT-116, 10 μM, one-dose, read-out: Growth percent
  activity at 10 µM: -93%
CAKI-1; CAKI-1, Renal Cancer, five-dose, read-out: GI50
  GI50: 313 nM
UO-31 [6]; UO-31, Renal Cancer, five-dose, read-out: GI50
  GI50: 1480 nM
NCI/ADR-RES; 10 μM, one-dose
  activity at 10 µM: -87.2%
MCF7 [7]; MCF7, MCF7, Breast Cancer, five-dose, read-out: GI50
  GI50: 44 nM
MCF7 [7]; MCF7, breast cancer MCF7, text, read-out: GI50
  GI50: < 100 nM
HL-60(TB); HL-60(TB), 10 μM, one-dose, read-out: Growth percent
  activity at 10 µM: -97.2%
Prostate Cancer panel; mean over Prostate Cancer panel, read-out: Mean GI50
  GI50: 250 nM
SK-MEL-28; SK-MEL-28, Melanoma, five-dose, read-out: GI50
  GI50: 272 nM
SK-MEL-5; SK-MEL-5, Melanoma, five-dose, read-out: GI50
  GI50: 138 nM
HS 578T; HS 578T, Breast Cancer, five-dose, read-out: GI50
  GI50: 185 nM
NCI-H226 [8]; NCI-H226, Non-small Cell Lung Cancer, five-dose, read-out: GI50
  GI50: 230 nM
UACC-62 [9]; UACC-62, Melanoma, five-dose, read-out: GI50
  GI50: 160 nM
HCT-15; HCT-15, Colon Cancer, five-dose, read-out: GI50
  GI50: 760 nM
SNB-75; SNB-75, CNS Cancer, five-dose, read-out: GI50
  GI50: 195 nM
UACC-257; UACC-257, UACC-257, Melanoma, five-dose, read-out: GI50
  GI50: 38 nM
UACC-257; UACC-257, melanoma UACC-257, text, read-out: GI50
  GI50: < 100 nM
HOP-62; HOP-62, 10 μM, one-dose, read-out: Growth percent
  activity at 10 µM: -97.9%
MCF7 [10]; MCF7, 10 μM, one-dose, read-out: Growth percent
  activity at 10 µM: -94.5%
SN12C; 10 μM, one-dose
  activity at 10 µM: -96.7%
Leukemia panel; mean over Leukemia panel, read-out: Mean GI50
  GI50: 110 nM
NCI-H23; NCI-H23, Non-small Cell Lung Cancer, five-dose, read-out: GI50
  GI50: 183 nM
K-562; K562, K-562, 10 μM, one-dose, read-out: Growth percent
  activity at 10 µM: -97.5%
Ovarian Cancer panel; mean over Ovarian Cancer panel, read-out: Mean GI50
  GI50: 940 nM
M14; M14, 10 μM, one-dose, read-out: Growth percent
  activity at 10 µM: -97.3%
